Experimental data published in patent US7662769B2, “Glycosyltransferase GnT-V having neovascularization action” (Suntory Holdings Limited, priority 2002, dated 2010).
“Also recorded” adds a separate entry of the source. Where no end group is shown, it is not given here.

Assays:
chicken microvessels = test: CAM (chorioallantoic membrane) assay of neovascularization; type: in vivo; conditions: ex-vivo, chicken embryo CAM
Procedure: Acceleration of neovascularization by a GnT-V transformant was confirmed by a CAM (chorioallantoic membrane) assay using an embryo of a chicken fertilized egg. The CAM assay was conducted by a method of Yen et al. (Yen, L., et al., Oncogene 19, 3460-3469 (2000)) and a method of Bernardini (Bernardini, G., et al., Blood 96, 4039-4045 (2000)), both being slightly modified. CAM 8 days after fertilization of white Leghorn was used, and 1×10^5 cells thereof were inoculated on a collagen sponge and maintained for 4 hours. A 5 mm silicon ring was placed on CAM on the collagen sponge and maintained for 48 hours.
Induction of neovascularization by GnT-V was confirmed also by other in vitro neovascularization assays such as a capillary-like tube formation assay (Ashoton, A. W., et al., J. Biol. Chem. 274, 35562-35570 (1999)) and a migration assay (Zeng, H., et al., J. Biol. Chem. 276, 3271-3279 (2001)) using HUVEC.

HSPG on HUVEC = test: release of FGF-2 from HSPG on HUVEC (FGF-2 ELISA of supernatant); type: cell-based, human; conditions: 4° C., 2 hours; FIG. 5
Excerpt: A basic peptide (KRKRKK peptide) composed of Lys-Arg-Lys-Arg-Lys-Lys (SEQ ID NO: 11) which is an amino acid sequence of from 264 to 269 and a non-basic control peptide (FSGGPL peptide) composed of Phe-Ser-Gly-Gly-Pro-Leu (SEQ ID NO: 12) which is an amino acid sequence of from 291 to 296, of GnT-V, were synthesized, and an influence of these peptides on growth of HUVEC was examined. The peptide was synthesized by a peptide synthesizer A432 (manufactured by Applied Biosystems), and purified by reverse phase HPLC, then, its molecular weight and degree of purification were confirmed by MALDI TOF-MS (Voyager-DE (registered trademark) RP; manufactured by PerSeptive Biosystems). The concentration of FGF-2 was measured by a known method (Barillari, G., et al., American J. Patho. 152, 1161-1166 (1998)). […] After centrifugation at 4° C. and 3000 rpm for 5 minutes, the supernatant was collected, the concentration of FGF-2 in the supernatant was measured in an FGF-2 ELISA system (manufactured by R&D Systems) according to a manual of this system.
As described above, various deficient variants of GnT-V and synthetic peptides were added at 4° C. to culture solution of HUVEC, and the amount of FGF-2 released from HSPG on HUVEC was measured.

HUVEC = HUVEC differentiation and growth, incorporation of [3H]-thymidine (DNA synthesis); type: cell-based, human; conditions: [3H]-thymidine incorporation; FIG. 2, 3B, 6
Procedure: For in vitro evaluation of induction of neovascularization by a GnT-V transformant, the amount of synthesis of DNA of human umbilical vein […] cells (HUVEC) after stimulation with culture solution of a GnT-V transformant was measured by a method of Soker et al.(Soker, S., et al., J. Biol. Chem. 272, 31582-31588 (1997)). HUVEC was inoculated on a 96-well plate coated with type I collagen at a rate of 2×10^3 cells per well, and 24 hours later, the medium was substituted with an MCDB131 medium (not containing FBS and FGF-2) containing 0.1% […] and a starved condition was maintained for 24 hours. The medium was substituted with culture solution of the WiDr cell transformed with the glycosyltransferase gene described in Example 1, and HUVEC was stimulated for 24 hours. HUVEC was maintained for 8 hours with [^3H]-thymidine (1 μCi/ml), and incorporation of [^3H]-thymidine into HUVEC was analyzed by MicroBeta-Counter (manufactured by Wallac) to measure the amount of synthesis of DNA. The result was shown as the mean value of assay results of 6 wells, and the standard deviation was measured. All experiments were repeated at least three times, and the same results were obtained. As apparent from FIG. 1, DNA synthesis of HUVEC stimulated with the culture solution of WiDr cells transformed with a GnT-V gene increased, however, the same effect was not observed in culture solution of WiDr cells transformed with other glycosyltransferase genes.
Purification of a neovascularization factor present in culture solution of WiDr cells transformed with a GnT-V gene was conducted using various column chromatographies. The neovascularization activity of each fraction was evaluated by differentiation and growth of HUVEC described in Example 3. In heparin affinity chromatography, a fraction of high growth activity of HUVEC was eluted with 0.3 M NaCl. Since known growth factors such as FGF-1, FGF-2, VEGF, placenta-induced growth factor (PIGF) and hepatocyte growth factor (HGF) and the like are eluted with 0.8 to 1.5 M NaCl (Hauser, S. & Weich H. A., Growth Factor 9, 259-268 (1993). Gohda, E., et al., J. Clin. Invest. 81, 414-419 (1998). Marez, A., et al., Biochimie 69, 125-129 (1987). Risau, W., et al., The EMBO J. 7, 959-962 (1988). Rothenthal, R. A., et al., Growth Factor 4, 53-59 (1990)), the above-mentioned nature is utterly different from the natures of these known growth factors. […] A fraction eluted with 0.3 M NaCl in heparin affinity chromatography was subjected to Western blot analysis using an anti-GnT-V antibody to find that the reaction of the anti-GnT-V antibody and the differentiation and growth activity of HUVEC are consistent each other, and the main protein having a differentiation and growth activity of HUVEC present in the fraction is GnT-V itself.

[1] = glycosyltransferase activity of GnT-V deficient variants; type: biochemical; conditions: recombinant variants from Sf21 cells
Excerpt: For clarifying which domain of GnT-V is involved in HUVEC growth accelerating activity, a GnT-V lacking variant shown in FIG. 3A was produced. The method of production of a GnT-VΔ188 plasmid is disclosed in a literature of Sasai et al (Sasai, K., et al., Glycobiology (in press)). A transfer plasmid having a GnT-VΔ233 gene was produced by binding a DNA fragment of 1521 base pairs encoding polyhistidine tag at the C-terminal and an amino acid sequence of from Glu234 to Leu741 of human GnT-V, obtained by cutting a GnT-VΔ188 plasmid with EcoRI and EagI, to an EcoRI-EagI site of a transfer vector pAcGP67-A (manufactured by PharMingen). A transfer plasmid having a GnT-VΔ436 gene was produced by binding a DNA fragment of 912 base pairs encoding polyhistidine tag at the C terminal and an amino acid sequence of from Ile437 to Leu741, of human GnT-V, obtained by cutting a GnT-VΔ188 plasmid with EcoRV and EagI, to an EcoRV-EagI site of a transfer vector pAcGP67-A. For production of a recombinant Baculovirus, an insect cell Sf21 was transformed with the transfer plasmid obtained above according to a method known in a literature (Ikeda, Y., et al., J. Biochem. 128, 609-619 (2000)). The recombinant glycosyltransferase derived from the transformed Sf21 cell was purified by Ni^2+-chelating affinity chromatography according to a method disclosed in a literature of Sasaki et al (Sasai, K., et al., Glycobiology (in press)).

Molecule: FGF-2: fibroblast growth factor-2 [reference compound]
- induction of neovascularization in CAM assay (chicken microvessels): induced neovascularization of chicken microvessels

Molecule: FSGGPL [FSGGPL peptide, reference compound]
- release of FGF-2 from HSPG on HUVEC (HSPG on HUVEC): did not affect release of FGF-2
- induction of neovascularization in CAM assay (chicken microvessels): did not have a neovascularization activity

Molecule: KRKRKK [KRKRKK peptide]
- release of FGF-2 from HSPG on HUVEC (HSPG on HUVEC): released FGF-2
- differentiation and growth of HUVEC (HUVEC growth accelerating activity) (HUVEC): accelerated growth of HUVEC at the same degree as GnT-VΔ73
- induction of neovascularization in CAM assay (chicken microvessels): induced neovascularization likewise

Molecule: heparin [reference compound]
- release of FGF-2 from HSPG on HUVEC (HSPG on HUVEC): induced release of FGF-2

B1: GnT-VΔ73: soluble recombinant GnT-V maintaining a glycosyltransferase activity but lacking in transmembrane portion, prepared by a Baculovirus system (protein, UniProt Q09328 74-741, looked up, fragment)
chain: AGVMTAYDLKKTLAVLLDNILQRIGKLESKVDNLVVNGTGTNSTNSTTAVPSLVALEKINVADIINGAQEKCVLPPMDGYPHCEGKIKWMKDMWRSDPCYADYGVDGSTCSFFIYLSEVENWCPHLPWRAKNPYEEADHNSLAEIRTDFNILYSMMKKHEEFRWMRLRIRRMADAWIQAIKSLAEKQNLEKRKRKKVLVHLGLLTKESGFKIAETAFSGGPLGELVQWSDLITSLYLLGHDIRISASLAELKEIMKKVVGNRSGCPTVGDRIVELIYIDIVGLAQFKKTLGPSWVHYQCMLRVLDSFGTEPEFNHANYAQSKGHKTPWGKWNLNPQQFYTMFPHTPDNSFLGFVVEQHLNSSDIHHINEIKRQNQSLVYGKVDSFWKNKKIYLDIIHTYMEVHATVYGSSTKNIPSYVKNHGILSGRDLQFLLRETKLFVGLGFPYEGPAPLEAIANGCAFLNPKFNPPKSSKNTDFFIGKPTLRELTSQHPYAEVFIGRPHVWTVDLNNQEEVEDAVKAILNQKIEPYMPYEFTCEGMLQRINAFIEKQDFCHGQVMWPPLSALQVKLAEPGQSCKQVCQESQLICEPSFFQHLNKDKDMLKYKVTCQSSELAKDILVPSFDPKNKHCVFQGDLLLFSCAGAHPRHQRVCPCRDFIKGQVALCKDCL
- release of FGF-2 from HSPG on HUVEC (HSPG on HUVEC): released FGF-2
- differentiation and growth of HUVEC (HUVEC growth accelerating activity) (HUVEC): increased in addition amount-dependent manner; also recorded: had an HUVEC growth and differentiation accentuation action
- induction of neovascularization in CAM assay (chicken microvessels): induced neovascularization of chicken microvessels

B2: GnT-VΔ188: GnT-V lacking variant shown in FIG. 3A, recombinant from Sf21 cells (protein, UniProt Q09328 189-741, looked up, fragment)
chain: LSEVENWCPHLPWRAKNPYEEADHNSLAEIRTDFNILYSMMKKHEEFRWMRLRIRRMADAWIQAIKSLAEKQNLEKRKRKKVLVHLGLLTKESGFKIAETAFSGGPLGELVQWSDLITSLYLLGHDIRISASLAELKEIMKKVVGNRSGCPTVGDRIVELIYIDIVGLAQFKKTLGPSWVHYQCMLRVLDSFGTEPEFNHANYAQSKGHKTPWGKWNLNPQQFYTMFPHTPDNSFLGFVVEQHLNSSDIHHINEIKRQNQSLVYGKVDSFWKNKKIYLDIIHTYMEVHATVYGSSTKNIPSYVKNHGILSGRDLQFLLRETKLFVGLGFPYEGPAPLEAIANGCAFLNPKFNPPKSSKNTDFFIGKPTLRELTSQHPYAEVFIGRPHVWTVDLNNQEEVEDAVKAILNQKIEPYMPYEFTCEGMLQRINAFIEKQDFCHGQVMWPPLSALQVKLAEPGQSCKQVCQESQLICEPSFFQHLNKDKDMLKYKVTCQSSELAKDILVPSFDPKNKHCVFQGDLLLFSCAGAHPRHQRVCPCRDFIKGQVALCKDCL
- glycosyltransferase activity [1]: had a glycosyltransferase activity
- release of FGF-2 from HSPG on HUVEC (HSPG on HUVEC): released FGF-2
- differentiation and growth of HUVEC (HUVEC growth accelerating activity) (HUVEC): had an HUVEC growth and differentiation accentuation action

B3: α1,6-fucosyltransferase (protein, UniProt Q9BYC5 1-575, looked up)
Alpha-(1,6)-fucosyltransferase: MRPWTGSWRWIMLILFAWGTLLFYIGGHLVRDNDHPDHSSRELSKILAKLERLKQQNEDLRRMAESLRIPEGPIDQGPAIGRVRVLEEQLVKAKEQIENYKKQTRNGLGKDHEILRRRIENGAKELWFFLQSELKKLKNLEGNELQRHADEFLLDLGHHERSIMTDLYYLSQTDGAGDWREKEAKDLTELVQRRITYLQNPKDCSKAKKLVCNINKGCGYGCQLHHVVYCFMIAYGTQRTLILESQNWRYATGGWETVFRPVSETCTDRSGISTGHWSGEVKDKNVQVVELPIVDSLHPRPPYLPLAVPEDLADRLVRVHGDPAVWWVSQFVKYLIRPQPWLEKEIEEATKKLGFKHPVIGVHVRRTDKVGTEAAFHPIEEYMVHVEEHFQLLARRMQVDKKRVYLATDDPSLLKEAKTKYPNYEFISDNSISWSAGLHNRYTENSLRGVILDIHFLSQADFLVCTFSSQVCRVAYEIMQTLHPDASANFHSLDDIYYFGGQNAHNQIAIYAHQPRTADEIPMEPGDIIGVAGNHWDGYSKGVNRKLGRTGLYPSYKVREKIETVKYPTYPEAEK
notes: recombinant α1,6-fucosyltransferase used as control glycosyltransferase
- differentiation and growth of HUVEC (HUVEC growth accelerating activity) (HUVEC): did not show HUVEC growth accelerating activity at all
